Source: ChEMBL document CHEMBL5728247, “Kinase inhibitors for the treatment of disease” (2021)

Biological target: Tyrosine-protein kinase BTK (Homo sapiens, UniProt Q06187)
Experiment: Kinase Assay: 1. Optimization of kinase concentration required to determine ATP Km,app. The assay was first performed at a high concentration of ATP (1 mM) against a dilution series of kinase in order to determine the amount of kinase required to elicit an approximately 80% change between the minimum and maximum TR-FRET emission ratios (the EC80 value).2. Determination of ATP Km,app. Using the concentration of enzyme determined in step 1, the assay was then performed against a dilution series of ATP in order to determine the amount of ATP required to elicit a 50% change between the minimum and maximum TR-FRET emission ratios (the EC50 value). This concentration of ATP was referred to as the “apparent” Km value for ATP, or the ATP Km,app.3. Optimization of kinase concentration required for assay at ATP Km,app. Using the ATP Km,app concentration of ATP determined in step 2, the kinase titration was repeated in order to determine the concentration of kinase required to elicit an approximately 80% change between the minimum and maximum TR-FRET emission ratios at the ATP Km,app concentration of ATP (the EC80 value). This was the concentration of kinase that will be used in an assay to determine an IC50 value for a compound of the invention.

Chain of Tyrosine-protein kinase BTK (Q06187 whole entry): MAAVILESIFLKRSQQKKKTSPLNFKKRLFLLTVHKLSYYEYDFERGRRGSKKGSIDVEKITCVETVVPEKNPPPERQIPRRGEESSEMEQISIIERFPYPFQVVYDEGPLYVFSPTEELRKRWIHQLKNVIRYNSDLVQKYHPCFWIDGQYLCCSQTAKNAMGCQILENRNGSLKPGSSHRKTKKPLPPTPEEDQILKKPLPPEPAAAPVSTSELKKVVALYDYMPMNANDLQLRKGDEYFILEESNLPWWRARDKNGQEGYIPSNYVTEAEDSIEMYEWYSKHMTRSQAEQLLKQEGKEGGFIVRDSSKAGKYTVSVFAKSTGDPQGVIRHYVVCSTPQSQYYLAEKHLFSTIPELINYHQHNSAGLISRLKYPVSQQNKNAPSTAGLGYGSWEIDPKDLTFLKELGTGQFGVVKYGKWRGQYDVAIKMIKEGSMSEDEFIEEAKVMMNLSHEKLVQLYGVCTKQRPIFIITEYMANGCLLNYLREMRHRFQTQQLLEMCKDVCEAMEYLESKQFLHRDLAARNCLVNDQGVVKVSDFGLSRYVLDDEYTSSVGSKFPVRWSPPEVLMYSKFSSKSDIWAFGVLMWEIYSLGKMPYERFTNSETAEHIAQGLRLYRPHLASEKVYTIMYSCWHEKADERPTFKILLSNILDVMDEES

IC50 | Compound
5.74 nM | C=CC(=O)Nc1cccc(N(C(=O)OCc2ccccc2)c2ccnc(Nc3cnn(CCN4CCOCC4)c3)n2)c1
5.13 nM | C=CC(=O)Nc1cccc(N(C(=O)OCc2ccccc2)c2ccnc(Nc3cnn(C)c3)n2)c1

Compound | IC50
C=CC(=O)Nc1cccc(N(C(=O)OCc2ccccc2)c2ccnc(Nc3cnn(C4CCOCC4)c3)n2)c1 | 3.12 nM
